Assay results as given in patent publication US20240209001A1, “HETEROCYCLIC DERIVATIVES AS JANUS KINASE INHIBITORS” (CHIESI FARMACEUTICI S.P. A., priority 2021, published 2024).

How the values were obtained:
[1] = target: JAK 2 (Homo sapiens (Human), UniProt O60674); assay: Biochemical potency on JAK2, TR-FRET LANCE Ultra kinase assay (compounds 1-92); conditions: ATP at Km, read-out: JAK2 inhibitory activity (pIC50 class) (converted)
In short: (§1)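 TR-FRET (LANCE Ultra) phosphorylation of ULight-JAK-1 peptide, ATP at Km: JAK1/JAK2/JAK3/TYK2 peptide 30/50/20/10 nM, ATP 20/0.7/0.2/12 μM, enzyme 0.15/0.083/0.025/0.144 ng/μL. 11-point 5-fold series from 20 μM; 1.5 h RT, EDTA stop, Eu-anti-pTyr detection 1 h; IC50 by variable-slope fit.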

[2] = target: JAK 1 (Homo sapiens (Human), UniProt P23458); assay: Biochemical potency on JAK1, TR-FRET LANCE Ultra kinase assay (compounds 1-92); conditions: ATP at Km, read-out: JAK1 inhibitory activity (pIC50 class) (converted)
In short: as §1

[3] = target: JAK 3 (Homo sapiens (Human), UniProt P52333); assay: Biochemical potency on JAK3, TR-FRET LANCE Ultra kinase assay (compounds 1-92); conditions: ATP at Km, read-out: JAK3 inhibitory activity (pIC50 class) (converted)
In short: as §1

[4] = target: TYK2 (Homo sapiens (Human), UniProt P29597); assay: Biochemical potency on Tyk2, TR-FRET LANCE Ultra kinase assay (compounds 1-92); conditions: ATP at Km, read-out: Tyk2 inhibitory activity (pIC50 class) (converted)
In short: as §1

JAK 2, sequence (O60674 whole entry): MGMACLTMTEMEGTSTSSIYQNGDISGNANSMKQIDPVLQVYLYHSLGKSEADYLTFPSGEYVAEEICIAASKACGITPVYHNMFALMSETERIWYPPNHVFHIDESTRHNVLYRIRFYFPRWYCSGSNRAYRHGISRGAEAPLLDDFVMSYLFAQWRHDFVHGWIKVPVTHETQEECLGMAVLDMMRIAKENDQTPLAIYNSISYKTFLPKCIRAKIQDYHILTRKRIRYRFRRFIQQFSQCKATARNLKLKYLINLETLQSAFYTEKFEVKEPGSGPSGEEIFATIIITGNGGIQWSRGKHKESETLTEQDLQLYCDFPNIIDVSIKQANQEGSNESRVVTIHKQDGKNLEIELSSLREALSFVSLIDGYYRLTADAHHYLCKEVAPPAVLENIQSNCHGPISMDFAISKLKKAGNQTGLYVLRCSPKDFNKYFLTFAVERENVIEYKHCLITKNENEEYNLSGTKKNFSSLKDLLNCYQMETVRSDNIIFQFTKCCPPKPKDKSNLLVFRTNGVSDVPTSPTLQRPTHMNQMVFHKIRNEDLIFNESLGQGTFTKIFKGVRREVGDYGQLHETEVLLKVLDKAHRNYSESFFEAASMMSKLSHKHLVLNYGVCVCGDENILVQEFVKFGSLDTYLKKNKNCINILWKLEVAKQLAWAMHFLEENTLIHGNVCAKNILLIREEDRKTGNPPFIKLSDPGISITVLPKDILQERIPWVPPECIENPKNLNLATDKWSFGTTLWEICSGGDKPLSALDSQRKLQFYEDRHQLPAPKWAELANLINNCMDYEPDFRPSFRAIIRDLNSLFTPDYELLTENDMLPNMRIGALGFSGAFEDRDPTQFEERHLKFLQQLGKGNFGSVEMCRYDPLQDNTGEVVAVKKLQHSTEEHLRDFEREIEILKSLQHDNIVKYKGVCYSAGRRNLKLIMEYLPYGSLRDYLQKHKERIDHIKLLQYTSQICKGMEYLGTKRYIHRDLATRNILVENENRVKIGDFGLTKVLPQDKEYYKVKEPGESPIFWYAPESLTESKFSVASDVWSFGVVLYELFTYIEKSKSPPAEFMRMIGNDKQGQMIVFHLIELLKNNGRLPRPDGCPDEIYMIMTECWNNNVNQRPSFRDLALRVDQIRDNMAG
JAK 3, sequence (P52333 whole entry): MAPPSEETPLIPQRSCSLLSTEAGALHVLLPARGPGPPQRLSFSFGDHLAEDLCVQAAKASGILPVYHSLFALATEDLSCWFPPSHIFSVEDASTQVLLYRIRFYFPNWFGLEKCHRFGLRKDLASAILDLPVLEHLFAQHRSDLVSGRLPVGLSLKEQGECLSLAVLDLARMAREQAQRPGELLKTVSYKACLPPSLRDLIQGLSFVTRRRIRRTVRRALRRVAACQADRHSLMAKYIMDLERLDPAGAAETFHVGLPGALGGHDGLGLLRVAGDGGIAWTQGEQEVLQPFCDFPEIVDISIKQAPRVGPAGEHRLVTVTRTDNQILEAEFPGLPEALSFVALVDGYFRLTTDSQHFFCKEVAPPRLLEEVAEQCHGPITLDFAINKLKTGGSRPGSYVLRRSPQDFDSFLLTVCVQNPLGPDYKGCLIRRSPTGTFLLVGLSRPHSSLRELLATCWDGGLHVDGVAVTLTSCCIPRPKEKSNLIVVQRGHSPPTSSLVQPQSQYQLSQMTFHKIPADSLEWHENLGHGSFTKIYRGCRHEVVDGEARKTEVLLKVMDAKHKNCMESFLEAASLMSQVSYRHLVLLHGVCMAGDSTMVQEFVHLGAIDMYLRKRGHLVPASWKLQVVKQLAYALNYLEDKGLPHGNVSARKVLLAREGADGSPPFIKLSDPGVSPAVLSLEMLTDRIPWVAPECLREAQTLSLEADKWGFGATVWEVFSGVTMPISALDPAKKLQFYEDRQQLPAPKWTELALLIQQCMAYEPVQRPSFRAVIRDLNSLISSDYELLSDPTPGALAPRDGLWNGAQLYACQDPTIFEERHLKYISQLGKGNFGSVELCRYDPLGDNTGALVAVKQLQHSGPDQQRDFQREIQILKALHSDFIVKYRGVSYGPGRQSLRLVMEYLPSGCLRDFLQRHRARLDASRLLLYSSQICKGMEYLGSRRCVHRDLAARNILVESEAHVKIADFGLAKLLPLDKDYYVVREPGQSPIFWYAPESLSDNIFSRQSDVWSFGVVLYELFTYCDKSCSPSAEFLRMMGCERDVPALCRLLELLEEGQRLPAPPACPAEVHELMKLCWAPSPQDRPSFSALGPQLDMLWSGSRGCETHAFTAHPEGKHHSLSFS
TYK2, sequence (P29597 whole entry): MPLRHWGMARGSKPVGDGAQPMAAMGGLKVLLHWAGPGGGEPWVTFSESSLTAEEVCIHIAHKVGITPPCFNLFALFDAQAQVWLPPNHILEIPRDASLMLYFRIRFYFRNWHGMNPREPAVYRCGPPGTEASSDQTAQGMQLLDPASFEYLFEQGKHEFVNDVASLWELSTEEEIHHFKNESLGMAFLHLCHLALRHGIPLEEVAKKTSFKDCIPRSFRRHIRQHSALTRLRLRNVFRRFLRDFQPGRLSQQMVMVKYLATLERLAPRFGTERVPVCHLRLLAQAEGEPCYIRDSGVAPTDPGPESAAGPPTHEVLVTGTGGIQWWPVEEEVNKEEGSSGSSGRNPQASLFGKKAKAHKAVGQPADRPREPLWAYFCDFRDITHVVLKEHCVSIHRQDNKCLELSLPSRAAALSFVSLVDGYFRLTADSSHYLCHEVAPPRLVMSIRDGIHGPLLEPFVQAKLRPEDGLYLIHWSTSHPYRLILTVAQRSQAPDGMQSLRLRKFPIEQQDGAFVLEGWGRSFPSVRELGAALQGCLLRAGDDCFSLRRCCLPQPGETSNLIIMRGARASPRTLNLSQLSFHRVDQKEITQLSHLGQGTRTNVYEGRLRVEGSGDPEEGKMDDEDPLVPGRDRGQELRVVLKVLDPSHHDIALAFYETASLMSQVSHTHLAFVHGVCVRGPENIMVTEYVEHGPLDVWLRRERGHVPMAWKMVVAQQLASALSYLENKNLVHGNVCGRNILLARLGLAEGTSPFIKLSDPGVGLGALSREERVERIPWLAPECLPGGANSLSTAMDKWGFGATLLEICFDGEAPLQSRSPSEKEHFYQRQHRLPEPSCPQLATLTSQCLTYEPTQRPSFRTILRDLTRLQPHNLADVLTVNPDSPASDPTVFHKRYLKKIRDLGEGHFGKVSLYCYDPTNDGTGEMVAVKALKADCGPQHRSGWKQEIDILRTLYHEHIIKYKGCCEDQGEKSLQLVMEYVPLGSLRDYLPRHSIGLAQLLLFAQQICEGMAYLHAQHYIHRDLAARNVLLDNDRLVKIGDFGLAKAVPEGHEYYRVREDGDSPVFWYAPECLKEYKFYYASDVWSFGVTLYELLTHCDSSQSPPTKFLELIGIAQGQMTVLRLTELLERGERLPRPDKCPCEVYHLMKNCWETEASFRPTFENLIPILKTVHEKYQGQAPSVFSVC
JAK 1, sequence (P23458 whole entry): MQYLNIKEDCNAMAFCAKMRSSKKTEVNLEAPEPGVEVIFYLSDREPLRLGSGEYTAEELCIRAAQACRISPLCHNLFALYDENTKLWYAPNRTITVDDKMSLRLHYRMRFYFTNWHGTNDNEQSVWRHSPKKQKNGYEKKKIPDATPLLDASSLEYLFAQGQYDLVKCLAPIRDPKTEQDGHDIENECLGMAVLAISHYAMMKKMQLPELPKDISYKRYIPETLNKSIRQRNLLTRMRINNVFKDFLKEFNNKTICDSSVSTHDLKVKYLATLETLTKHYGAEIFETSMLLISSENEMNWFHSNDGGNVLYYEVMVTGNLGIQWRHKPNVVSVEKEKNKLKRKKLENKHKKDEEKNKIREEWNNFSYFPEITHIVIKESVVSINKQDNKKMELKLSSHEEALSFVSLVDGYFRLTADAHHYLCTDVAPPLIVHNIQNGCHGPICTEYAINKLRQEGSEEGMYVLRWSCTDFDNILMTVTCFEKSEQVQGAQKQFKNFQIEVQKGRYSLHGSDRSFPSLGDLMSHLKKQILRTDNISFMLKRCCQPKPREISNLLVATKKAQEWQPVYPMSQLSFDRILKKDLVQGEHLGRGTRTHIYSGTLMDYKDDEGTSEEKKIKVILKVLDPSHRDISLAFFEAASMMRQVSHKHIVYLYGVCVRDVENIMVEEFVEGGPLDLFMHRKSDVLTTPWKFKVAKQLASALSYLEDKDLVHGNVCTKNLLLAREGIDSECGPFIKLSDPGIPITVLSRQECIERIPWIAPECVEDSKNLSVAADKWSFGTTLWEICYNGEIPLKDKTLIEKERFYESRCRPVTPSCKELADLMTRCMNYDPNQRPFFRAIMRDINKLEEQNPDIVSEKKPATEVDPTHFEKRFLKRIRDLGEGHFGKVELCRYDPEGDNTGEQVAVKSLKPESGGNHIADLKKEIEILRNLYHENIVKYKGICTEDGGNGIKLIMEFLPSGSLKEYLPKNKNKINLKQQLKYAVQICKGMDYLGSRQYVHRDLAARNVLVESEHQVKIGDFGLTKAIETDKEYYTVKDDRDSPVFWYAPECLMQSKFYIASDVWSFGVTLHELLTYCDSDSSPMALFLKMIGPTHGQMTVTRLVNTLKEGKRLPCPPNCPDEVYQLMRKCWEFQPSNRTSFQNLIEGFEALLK

COc1cc(CNS(C)(=O)=O)ccc1-n1nc(NCCN(C)C)c2cnc(-c3cnn4cccnc34)cc21 [Example 56, N-(4-(3-((2-(dimethylamino)ethyl)amino)-6-(pyrazolo[1,5-a]pyrimidin-3-yl)-1H-pyrazolo[4,3-c]pyridin-1-yl)-3-methoxybenzyl)methanesulfonamide]
IC50 [1]: ≤ 5.01 nM | IC50 [2]: ≤ 5.01 nM | IC50 [3]: ≤ 5.01 nM | IC50 [4]: 5.01 to 50.1 nM

CNc1nn(-c2cc(Cl)c(CNS(C)(=O)=O)cc2OC)c2cc(-c3cnn4cccnc34)ncc12 [Example 57, N-(2-chloro-5-methoxy-4-(3-(methylamino)-6-(pyrazolo[1,5-a]pyrimidin-3-yl)-1H-pyrazolo[4,3-c]pyridin-1-yl)benzyl)methanesulfonamide]
IC50 [1]: ≤ 5.01 nM | IC50 [2]: ≤ 5.01 nM | IC50 [3]: ≤ 5.01 nM | IC50 [4]: 5.01 to 50.1 nM

COc1cc(CNS(C)(=O)=O)c(Cl)cc1-n1nc(NCCN2CCOCC2)c2cnc(-c3cnn4cccnc34)cc21 [Example 58, N-(2-chloro-5-methoxy-4-(3-((2-morpholinoethyl)amino)-6-(pyrazolo[1,5-a]pyrimidin-3-yl)-1H-pyrazolo[4,3-c]pyridin-1-yl)benzyl)methanesulfonamide]
IC50 [1]: 5.01 to 50.1 nM | IC50 [2]: ≤ 5.01 nM | IC50 [3]: 5.01 to 50.1 nM | IC50 [4]: 5.01 to 50.1 nM

COc1cc(CNS(C)(=O)=O)ccc1-n1nc(C(=O)NCCCN(C)C)c2cnc(-c3cnn4cccnc34)cc21 [Example 59, N-(3-(dimethylamino)propyl)-1-(2-methoxy-4-(methylsulfonamidomethyl)phenyl)-6-(pyrazolo[1,5-a]pyrimidin-3-yl)-1H-pyrazolo[4,3-c]pyridine-3-carboxamide]
IC50 [1]: 5.01 to 50.1 nM | IC50 [2]: ≤ 5.01 nM | IC50 [3]: 5.01 to 50.1 nM | IC50 [4]: 5.01 to 50.1 nM

COc1cc(CNS(C)(=O)=O)ccc1-n1nc(CC#N)c2cnc(-c3cnn4cccnc34)cc21 [Example 60, N-(4-(3-(cyanomethyl)-6-(pyrazolo[1,5-a]pyrimidin-3-yl)-1H-pyrazolo[4,3-c]pyridin-1-yl)-3-methoxybenzyl)methanesulfonamide]
IC50 [1]: ≤ 5.01 nM | IC50 [2]: ≤ 5.01 nM | IC50 [3]: ≤ 5.01 nM | IC50 [4]: 5.01 to 50.1 nM

Cc1nn(-c2ccc(CNS(C)(=O)=O)cc2OC(F)F)c2cc(-c3cnn4cccnc34)ncc12 [Example 61, N-(3-(difluoromethoxy)-4-(3-methyl-6-(pyrazolo[1,5-a]pyrimidin-3-yl)-1H-pyrazolo[4,3-c]pyridin-1-yl)benzyl)methanesulfonamide]
IC50 [1]: ≤ 5.01 nM | IC50 [2]: ≤ 5.01 nM | IC50 [3]: ≤ 5.01 nM | IC50 [4]: 5.01 to 50.1 nM

COc1cc(C(C)NS(C)(=O)=O)ccc1-n1nc(C)c2cnc(-c3cnn4cccnc34)cc21 (centres unmarked) [Example 62, N-(1-(3-methoxy-4-(3-methyl-6-(pyrazolo[1,5-a]pyrimidin-3-yl)-1H-pyrazolo[4,3-c]pyridin-1-yl)phenyl)ethyl)methanesulfonamide]
IC50 [1]: ≤ 5.01 nM | IC50 [2]: ≤ 5.01 nM | IC50 [3]: ≤ 5.01 nM | IC50 [4]: > 50.1 nM

COc1cc(CNS(C)(=O)=O)ccc1-n1nc(C)c2cnc(-c3cnn4cccnc34)cc21 [Example 63, N-(3-methoxy-4-(3-methyl-6-(pyrazolo[1,5-a]pyrimidin-3-yl)-1H-pyrazolo[4,3-c]pyridin-1-yl)benzyl)methanesulfonamide]
IC50 [1]: ≤ 5.01 nM | IC50 [2]: ≤ 5.01 nM | IC50 [3]: ≤ 5.01 nM | IC50 [4]: 5.01 to 50.1 nM

COc1cc(CNS(=O)(=O)C2CC2)ccc1-n1nc(C)c2cnc(-c3cnn4cccnc34)cc21 [Example 64, N-(3-methoxy-4-(3-methyl-6-(pyrazolo[1,5-a]pyrimidin-3-yl)-1H-pyrazolo[4,3-c]pyridin-1-yl)benzyl)cyclopropanesulfonamide]
IC50 [1]: ≤ 5.01 nM | IC50 [2]: ≤ 5.01 nM | IC50 [3]: ≤ 5.01 nM | IC50 [4]: 5.01 to 50.1 nM

COc1cc(CN(C)S(C)(=O)=O)ccc1-n1nc(C)c2cnc(-c3cnn4cccnc34)cc21 [Example 65, N-(3-methoxy-4-(3-methyl-6-(pyrazolo[1,5-a]pyrimidin-3-yl)-1H-pyrazolo[4,3-c]pyridin-1-yl)benzyl)-N-methylmethanesulfonamide]
IC50 [1]: ≤ 5.01 nM | IC50 [2]: ≤ 5.01 nM | IC50 [3]: ≤ 5.01 nM | IC50 [4]: 5.01 to 50.1 nM

COc1cc(CO)ccc1-n1nc(C)c2cnc(-c3cnn4cccnc34)cc21 [Example 66, (3-methoxy-4-(3-methyl-6-(pyrazolo[1,5-a]pyrimidin-3-yl)-1H-pyrazolo[4,3-c]pyridin-1-yl)phenyl)methanol]
IC50 [1]: 5.01 to 50.1 nM | IC50 [2]: 5.01 to 50.1 nM | IC50 [3]: 5.01 to 50.1 nM | IC50 [4]: > 50.1 nM

COc1cc(CN)ccc1-n1nc(C)c2cnc(-c3cnn4cccnc34)cc21 [Example 67, (3-methoxy-4-(3-methyl-6-(pyrazolo[1,5-a]pyrimidin-3-yl)-1H-pyrazolo[4,3-c]pyridin-1-yl)phenyl)methanamine]
IC50 [1]: > 50.1 nM | IC50 [2]: > 50.1 nM | IC50 [3]: > 50.1 nM | IC50 [4]: > 50.1 nM

COc1cc(CNS(=O)(=O)CC#N)ccc1-n1nc(C)c2cnc(-c3cnn4cccnc34)cc21 [Example 68, 1-cyano-N-(3-methoxy-4-(3-methyl-6-(pyrazolo[1,5-a]pyrimidin-3-yl)-1H-pyrazolo[4,3-c]pyridin-1-yl)benzyl)methanesulfonamide]
IC50 [1]: ≤ 5.01 nM | IC50 [2]: ≤ 5.01 nM | IC50 [3]: ≤ 5.01 nM | IC50 [4]: 5.01 to 50.1 nM

COC(=O)NCc1ccc(-n2nc(C)c3cnc(-c4cnn5cccnc45)cc32)c(OC)c1 [Example 69, methyl (3-methoxy-4-(3-methyl-6-(pyrazolo[1,5-a]pyrimidin-3-yl)-1H-pyrazolo[4,3-c]pyridin-1-yl)benzyl)carbamate]
IC50 [1]: 5.01 to 50.1 nM | IC50 [2]: > 50.1 nM | IC50 [3]: 5.01 to 50.1 nM | IC50 [4]: > 50.1 nM

COc1cc(CNC(C)=O)ccc1-n1nc(C)c2cnc(-c3cnn4cccnc34)cc21 [Example 70, N-(3-methoxy-4-(3-methyl-6-(pyrazolo[1,5-a]pyrimidin-3-yl)-1H-pyrazolo[4,3-c]pyridin-1-yl)benzyl)acetamide]
IC50 [1]: > 50.1 nM | IC50 [2]: > 50.1 nM | IC50 [3]: > 50.1 nM | IC50 [4]: > 50.1 nM

CNC(=O)NCc1ccc(-n2nc(C)c3cnc(-c4cnn5cccnc45)cc32)c(OC)c1 [Example 71, 1-(3-methoxy-4-(3-methyl-6-(pyrazolo[1,5-a]pyrimidin-3-yl)-1H-pyrazolo[4,3-c]pyridin-1-yl)benzyl)-3-methylurea]
IC50 [1]: 5.01 to 50.1 nM | IC50 [2]: 5.01 to 50.1 nM | IC50 [3]: 5.01 to 50.1 nM | IC50 [4]: > 50.1 nM

COc1cc(CNC(=O)Nc2ccccc2)ccc1-n1nc(C)c2cnc(-c3cnn4cccnc34)cc21 [Example 72, 1-(3-methoxy-4-(3-methyl-6-(pyrazolo[1,5-a]pyrimidin-3-yl)-1H-pyrazolo[4,3-c]pyridin-1-yl)benzyl)-3-phenylurea]
IC50 [1]: 5.01 to 50.1 nM | IC50 [2]: > 50.1 nM | IC50 [3]: 5.01 to 50.1 nM | IC50 [4]: > 50.1 nM

COc1cc(NS(=O)(=O)CC(F)F)ccc1-n1nc(C)c2cnc(-c3cnn4cccnc34)cc21 [Example 73, 2,2-difluoro-N-(3-methoxy-4-(3-methyl-6-(pyrazolo[1,5-a]pyrimidin-3-yl)-1H-pyrazolo[4,3-c]pyridin-1-yl)phenyl)ethane-1-sulfonamide]
IC50 [1]: 5.01 to 50.1 nM | IC50 [2]: ≤ 5.01 nM | IC50 [3]: 5.01 to 50.1 nM | IC50 [4]: 5.01 to 50.1 nM

COc1cc(NC(=O)c2ccccc2)ccc1-n1nc(C)c2cnc(-c3cnn4cccnc34)cc21 [Example 74, N-(3-methoxy-4-(3-methyl-6-(pyrazolo[1,5-a]pyrimidin-3-yl)-1H-pyrazolo[4,3-c]pyridin-1-yl)phenyl)benzamide]
IC50 [1]: 5.01 to 50.1 nM | IC50 [2]: 5.01 to 50.1 nM | IC50 [3]: 5.01 to 50.1 nM | IC50 [4]: > 50.1 nM

COc1cc(NC(=O)c2ccccc2)ccc1-n1nc(NCCN(C)C)c2cnc(-c3cnn4cccnc34)cc21 [Example 75, N-(4-(3-((2-(dimethylamino)ethyl)amino)-6-(pyrazolo[1,5-a]pyrimidin-3-yl)-1H-pyrazolo[4,3-c]pyridin-1-yl)-3-methoxyphenyl)benzamide]
IC50 [1]: 5.01 to 50.1 nM | IC50 [2]: 5.01 to 50.1 nM | IC50 [3]: 5.01 to 50.1 nM | IC50 [4]: > 50.1 nM

COc1cc(NS(C)(=O)=O)ccc1-n1nc(NCCN2CCOCC2)c2cnc(-c3cnc4cccnn34)cc21 [Example 76, N-(4-(6-(imidazo[1,2-b]pyridazin-3-yl)-3-((2-morpholinoethyl)amino)-1H-pyrazolo[4,3-c]pyridin-1-yl)-3-methoxyphenyl)methanesulfonamide]
IC50 [1]: ≤ 5.01 nM | IC50 [2]: ≤ 5.01 nM | IC50 [3]: ≤ 5.01 nM | IC50 [4]: 5.01 to 50.1 nM

COc1cc(NS(C)(=O)=O)ccc1-n1nc(NCCN(C)C)c2cnc(-c3cnc4cccnn34)cc21 [Example 77, N-(4-(3-((2-(dimethylamino)ethyl)amino)-6-(imidazo[1,2-b]pyridazin-3-yl)-1H-pyrazolo[4,3-c]pyridin-1-yl)-3-methoxyphenyl)methanesulfonamide]
IC50 [1]: ≤ 5.01 nM | IC50 [2]: ≤ 5.01 nM | IC50 [3]: ≤ 5.01 nM | IC50 [4]: 5.01 to 50.1 nM

COc1cc(NS(=O)(=O)C2CC2)ccc1-n1nc(N[C@H]2C[C@@H](N(C)C)C2)c2cnc(-c3cnn4cccnc34)cc21 [Example 78, N-(4-(3-(((1s,3s)-3-(dimethylamino)cyclobutyl)amino)-6-(pyrazolo[1,5-a]pyrimidin-3-yl)-1H-pyrazolo[4,3-c]pyridin-1-yl)-3-methoxyphenyl)cyclopropanesulfonamide]
IC50 [1]: ≤ 5.01 nM | IC50 [2]: ≤ 5.01 nM | IC50 [3]: ≤ 5.01 nM | IC50 [4]: 5.01 to 50.1 nM
